These results are taken from patent US20240335442A1 (Eurofarma Laboratórios S.A., priority 2021, published 2024).

Holding throughout (type): cell-based
Experiment [1] deals with T1, human sodium channel Nav 1.8 (Homo sapiens (Human), UniProt Q9Y5Y9). Briefly: Automated whole-cell voltage-clamp (ScreenPatch 384P), Nav 1.8 sodium current, Protocol 1. As to conditions: Protocol 1 (holding voltage -90 mV, 0.1 Hz); CHO cells expressing human Nav 1.8; room temperature; read-out: Nav1.8 IC50. On the procedure:
(§1) Biological assays were performed on Chinese hamster ovary (CHO) cells expressing the human sodium channels Nav 1.8 and Nav 1.7 stably.
(§2) The experimental voltage-clamp protocol using the whole cell configuration was established on the automated ScreenPatch® 384P platform (SP384PE, Nanion Technologies, Livingston, NJ) and recording of the results was performed with a Nanion 384-well Patch Clamp chip (NPC) (Nanion Technologies, Livingston, NJ).
(§3) Compounds of Formula (I), were diluted in eight concentrations in the extracellular solution composed of physiological saline, buffered with HEPES (mM): NaCl, 137; KCl, 4; CaCl2, 3.8; MgCl2, 1; HEPES, 10; Glucose, 10; pH 7.4. The […], 50; CsF, 90; MgCl2, 5; EGTA, 5; HEPES, 10; pH 7.2. The duration of exposure of each compound with the cells expressing Nav 1.7 or Nav 1.8 was at least five minutes and the assays were performed at room temperature.
(§4) The measurements of the sodium currents of Nav 1.8 and Nav 1.7 were obtained using the voltage protocols described below: • Protocol 1: A holding voltage of-90 mV was established followed by a voltage phase of 200 ms to-120 mV, followed by a voltage step of 10 mV for 1 second for Nav 1.8 or 0 mV for Nav 1.7, followed by a step of-100 mV for 20 ms, followed by a step of 20 ms for 10 mV for Nav 1.8 or 0 mV for Nav 1.7 (TP1A) before returning to the holding voltage of-90 mV. • Protocol 2: A holding voltage of-100 mV was established followed by an inactivation voltage step at −40 mV for 8 seconds, followed by a −100 mV step for 20 ms, followed by a 20 ms step for 10 mV for Nav 1.8 or 0 mV for Nav 1.7 (TP1A) before returning to the holding voltage of-100 mV.
(§5) Protocols were repeated at a frequency of 0.1 Hz (Protocol 1) or 0.05 Hz (Protocol 2) and current amplitude was quantified over the TP1A phase log. The variation in the peak amplitude of the current was evaluated according to the Formula described below, after exposure of the cells expressing the channels, at each concentration of the different compounds:
(§6) where ITP1A,basal, and ITP1A,molecule represent the entry peaks of sodium currents into TP1A prior to exposure to the compound and in the presence of the compound, respectively.
(§7) The decrease in peak current amplitude, after exposure of the cells to the compounds, was used to calculate the percent relative blocking of the channels relative to the positive control according to the Formula below: […]
(§8) where % V and % CP represent the averages of the values of current inhibition with a vehicle (DMSO) and positive controls, respectively. The sodium currents of the positive control were considered as 100%.
(§9) where [Test] represents the concentration of the evaluated molecule, IC50 is the concentration of the compound that generates half of the maximum inhibition, N is the Hill's coefficient and % Block′ is the percentage of the sodium channel current (Nav 1.8 and Nav 1.7) inhibited at each concentration of the evaluated molecule. Data were obtained by non linear least squares regression with XL fit for Excel (Microsoft, Redmond, WA).
(§10) Compounds were tested in at least one assay to obtain the IC50 value.

Experiment [2] has as its target T2, human sodium channel Nav 1.7 (Homo sapiens (Human), UniProt Q15858). The experiment in a line: Automated whole-cell voltage-clamp (ScreenPatch 384P), Nav 1.7 sodium current, Protocol 1. As to conditions: Protocol 1 (holding voltage -90 mV, 0.1 Hz); CHO cells expressing human Nav 1.7; room temperature; read-out: Nav1.7 IC50. On the procedure:
as §1, §2, §3, §4, §5, §6, §7, §8, §9, §10

For experiment [3], the target named is T1, human sodium channel Nav 1.8. The experiment in a line: Automated whole-cell voltage-clamp (ScreenPatch 384P), Nav 1.8 sodium current, Protocol 2. As to conditions: read-out: Nav1.8 IC50. In outline:
(§11)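 Peak TP1A sodium current block, scaled between DMSO vehicle and positive control, was fitted with a Hill equation to give IC50 at eight compound concentrations (≥5 min, room temperature) in stable CHO lines. Protocol 2 (0.05 Hz) used an 8 s −40 mV inactivating prepulse from −100 mV; Protocol 1 (0.1 Hz) held at −90 mV; test steps 10 mV for Nav1.8, 0 mV for Nav1.7.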

Experiment [4] deals with T2, human sodium channel Nav 1.7. The experiment in a line: Automated whole-cell voltage-clamp (ScreenPatch 384P), Nav 1.7 sodium current, Protocol 2. As to conditions: read-out: Nav1.7 IC50. In outline: as §11

Molecules are shown by their SMILES.

T2 sequence (Q15858 whole entry): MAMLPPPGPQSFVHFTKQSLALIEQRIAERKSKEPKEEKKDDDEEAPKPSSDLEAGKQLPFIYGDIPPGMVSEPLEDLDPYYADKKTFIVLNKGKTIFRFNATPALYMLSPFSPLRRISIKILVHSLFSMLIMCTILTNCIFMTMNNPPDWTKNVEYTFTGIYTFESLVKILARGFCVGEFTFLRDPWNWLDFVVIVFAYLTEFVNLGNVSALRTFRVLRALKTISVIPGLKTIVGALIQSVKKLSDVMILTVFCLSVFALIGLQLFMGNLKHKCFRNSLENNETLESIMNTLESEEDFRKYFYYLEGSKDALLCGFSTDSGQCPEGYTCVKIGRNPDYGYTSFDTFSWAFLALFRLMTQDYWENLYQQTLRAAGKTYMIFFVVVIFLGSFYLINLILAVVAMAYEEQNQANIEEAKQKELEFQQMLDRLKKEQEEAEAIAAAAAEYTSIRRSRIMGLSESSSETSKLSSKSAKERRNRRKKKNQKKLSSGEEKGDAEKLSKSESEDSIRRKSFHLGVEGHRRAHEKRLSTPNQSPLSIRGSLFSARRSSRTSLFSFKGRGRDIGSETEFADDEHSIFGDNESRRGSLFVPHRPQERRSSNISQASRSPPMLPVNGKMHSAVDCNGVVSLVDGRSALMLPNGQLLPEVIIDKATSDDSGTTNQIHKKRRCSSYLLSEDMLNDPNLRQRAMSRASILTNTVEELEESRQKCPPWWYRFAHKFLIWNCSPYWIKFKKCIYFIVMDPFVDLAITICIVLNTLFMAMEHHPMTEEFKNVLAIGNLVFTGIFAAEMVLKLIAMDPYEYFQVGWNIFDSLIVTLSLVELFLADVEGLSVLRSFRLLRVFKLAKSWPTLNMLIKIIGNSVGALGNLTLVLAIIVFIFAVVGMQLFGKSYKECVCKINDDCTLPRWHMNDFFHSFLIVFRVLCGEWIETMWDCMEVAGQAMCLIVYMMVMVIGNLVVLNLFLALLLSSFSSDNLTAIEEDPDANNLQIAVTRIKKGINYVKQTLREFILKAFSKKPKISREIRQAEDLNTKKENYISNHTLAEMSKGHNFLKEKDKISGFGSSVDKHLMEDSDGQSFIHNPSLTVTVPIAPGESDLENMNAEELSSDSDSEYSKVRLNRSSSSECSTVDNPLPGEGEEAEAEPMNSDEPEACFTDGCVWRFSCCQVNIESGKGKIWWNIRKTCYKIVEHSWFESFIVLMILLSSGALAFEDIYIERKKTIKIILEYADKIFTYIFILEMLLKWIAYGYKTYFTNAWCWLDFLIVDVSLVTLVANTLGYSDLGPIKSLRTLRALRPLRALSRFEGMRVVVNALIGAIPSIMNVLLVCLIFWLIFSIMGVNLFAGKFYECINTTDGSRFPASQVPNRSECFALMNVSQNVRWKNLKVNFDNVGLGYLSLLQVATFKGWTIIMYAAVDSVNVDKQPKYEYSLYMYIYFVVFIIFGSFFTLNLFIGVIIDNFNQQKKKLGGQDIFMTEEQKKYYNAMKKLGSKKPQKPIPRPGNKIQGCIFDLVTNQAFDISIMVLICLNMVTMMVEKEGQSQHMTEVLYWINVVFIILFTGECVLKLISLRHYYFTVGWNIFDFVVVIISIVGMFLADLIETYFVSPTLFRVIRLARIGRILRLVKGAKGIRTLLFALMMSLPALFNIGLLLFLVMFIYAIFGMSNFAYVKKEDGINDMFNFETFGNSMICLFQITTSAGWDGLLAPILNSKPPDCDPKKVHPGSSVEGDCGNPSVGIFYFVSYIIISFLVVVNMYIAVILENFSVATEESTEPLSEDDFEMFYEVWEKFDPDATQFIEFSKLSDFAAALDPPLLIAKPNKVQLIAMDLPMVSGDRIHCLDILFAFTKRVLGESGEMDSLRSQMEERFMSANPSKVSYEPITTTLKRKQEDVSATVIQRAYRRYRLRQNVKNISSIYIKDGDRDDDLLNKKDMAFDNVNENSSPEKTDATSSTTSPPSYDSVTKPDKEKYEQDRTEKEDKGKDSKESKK
T1 sequence (Q9Y5Y9 whole entry): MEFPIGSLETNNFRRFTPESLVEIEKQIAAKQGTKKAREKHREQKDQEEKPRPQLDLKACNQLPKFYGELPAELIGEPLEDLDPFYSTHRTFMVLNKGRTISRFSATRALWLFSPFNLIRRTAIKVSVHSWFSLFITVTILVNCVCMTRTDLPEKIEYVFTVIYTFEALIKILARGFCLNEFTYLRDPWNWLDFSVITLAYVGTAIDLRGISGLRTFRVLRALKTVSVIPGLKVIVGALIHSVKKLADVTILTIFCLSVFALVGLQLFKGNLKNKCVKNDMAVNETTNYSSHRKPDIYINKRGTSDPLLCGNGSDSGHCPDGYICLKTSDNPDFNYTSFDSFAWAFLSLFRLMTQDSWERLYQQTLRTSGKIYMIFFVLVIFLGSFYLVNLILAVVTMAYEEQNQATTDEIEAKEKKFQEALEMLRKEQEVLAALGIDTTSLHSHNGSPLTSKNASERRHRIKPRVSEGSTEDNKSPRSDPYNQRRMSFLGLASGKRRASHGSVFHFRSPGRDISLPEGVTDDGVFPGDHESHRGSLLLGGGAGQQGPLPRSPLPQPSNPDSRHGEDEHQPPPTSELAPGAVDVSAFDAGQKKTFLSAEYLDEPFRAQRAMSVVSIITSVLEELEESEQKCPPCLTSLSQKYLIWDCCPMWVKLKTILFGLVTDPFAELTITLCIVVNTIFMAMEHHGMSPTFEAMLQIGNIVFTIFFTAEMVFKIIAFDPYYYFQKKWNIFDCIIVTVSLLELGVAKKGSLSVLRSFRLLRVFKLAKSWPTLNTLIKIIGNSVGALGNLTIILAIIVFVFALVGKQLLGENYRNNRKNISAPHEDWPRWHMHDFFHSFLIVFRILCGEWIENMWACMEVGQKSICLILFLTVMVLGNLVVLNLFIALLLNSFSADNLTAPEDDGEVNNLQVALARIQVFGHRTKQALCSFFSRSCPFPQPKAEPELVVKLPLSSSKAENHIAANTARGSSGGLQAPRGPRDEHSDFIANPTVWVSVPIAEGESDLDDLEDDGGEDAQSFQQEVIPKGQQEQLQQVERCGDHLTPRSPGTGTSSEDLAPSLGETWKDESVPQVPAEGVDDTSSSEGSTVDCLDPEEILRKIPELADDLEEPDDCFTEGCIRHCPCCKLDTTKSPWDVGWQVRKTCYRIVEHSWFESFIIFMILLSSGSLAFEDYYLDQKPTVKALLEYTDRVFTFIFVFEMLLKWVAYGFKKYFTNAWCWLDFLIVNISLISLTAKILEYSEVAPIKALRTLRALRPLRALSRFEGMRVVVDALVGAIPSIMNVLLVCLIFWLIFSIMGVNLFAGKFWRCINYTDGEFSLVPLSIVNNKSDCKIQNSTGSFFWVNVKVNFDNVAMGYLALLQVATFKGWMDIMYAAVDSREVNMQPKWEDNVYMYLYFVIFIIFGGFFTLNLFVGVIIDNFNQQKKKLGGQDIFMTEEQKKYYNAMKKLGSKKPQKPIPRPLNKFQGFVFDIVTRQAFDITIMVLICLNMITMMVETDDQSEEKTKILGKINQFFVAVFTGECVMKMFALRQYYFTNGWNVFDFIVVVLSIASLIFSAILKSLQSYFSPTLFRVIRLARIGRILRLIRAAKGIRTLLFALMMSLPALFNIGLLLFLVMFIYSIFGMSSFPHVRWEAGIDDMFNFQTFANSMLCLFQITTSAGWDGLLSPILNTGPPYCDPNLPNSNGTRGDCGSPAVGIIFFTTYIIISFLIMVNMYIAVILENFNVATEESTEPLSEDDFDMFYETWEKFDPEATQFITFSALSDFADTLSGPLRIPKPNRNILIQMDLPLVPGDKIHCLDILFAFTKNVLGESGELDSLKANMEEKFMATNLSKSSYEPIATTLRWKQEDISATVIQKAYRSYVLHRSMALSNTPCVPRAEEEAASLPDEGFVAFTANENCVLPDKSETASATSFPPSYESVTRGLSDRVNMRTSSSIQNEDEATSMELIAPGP

On to `CCOc1ccc(-c2cncc(C(=O)N/N=C/c3cc(OC)cc(OCCN(C)C)c3)n2)cc1` [Compound 4, (E)-N′-(3-(2-(dimethylamino)ethoxy)-5-methoxybenzylidene)-6-(4-ethoxyphenyl)pyrazine-2-carbohydrazide], for which the results for the IC50 in experiment [1] and in experiment [2] were 6.02 µM and 6.66 µM, respectively.

`COc1cc(/C=N/NC(=O)c2cncc(-c3ccc(C(F)F)cc3)n2)cc(OC)c1` [Compound 177, (E)-6-(4-(difluoromethyl)phenyl)-N′-(3,5-dimethoxybenzylidene)pyrazine-2-carbohydrazide]: the figures for the IC50 in experiment [3] and in experiment [4] were 0.963 µM and above 1 µM, respectively.

Turning to `COc1ccc(-c2cncc(C(=O)N/N=C/c3ccccc3)n2)cc1` [Compound 178, (E)-N′-benzylidene-6-(4-methoxyphenyl)pyrazine-2-carbohydrazide], the results for the IC50 in experiment [3] and in experiment [4] were 0.358 µM and 3.19 µM, respectively.

For the compound `COc1cc(/C=N/NC(=O)c2cncc(N3CCCC(F)(F)CC3)n2)cc(OC)c1` [Compound 179, (E)-6-(4,4-difluoroazepan-1-yl)-N′-(3,5-dimethoxybenzylidene)pyrazine-2-carbohydrazide], the IC50 – broadly, the midpoint of a concentration-inhibition curve – is above 1 µM in experiment [3] and above 10 µM in experiment [4].

Turning to `COc1cc(/C=N/NC(=O)c2cncc(N3CCC(F)(F)CC3)n2)cc(OC)c1` [Compound 180, (E)-6-(4,4-difluoropiperidin-1-yl)-N′-(3,5-dimethoxybenzylidene)pyrazine-2-carbohyrazide], the IC50 in experiment [3] is above 1 µM; in experiment [4], above 10 µM.

For the compound `COc1ccc(-c2cncc(C(=O)N/N=C/C3CCCCCC3)n2)cc1` [Compound 181, (E)-N′-(cycloheptylmethylene)-6-(4-methoxyphenyl)pyrazine-2-carbohydrazide], the values for the half-inhibitory concentration (IC50) in experiment [3] and in experiment [4] were 0.32 µM and 6.41 µM, respectively.

For the compound `CCOc1ccc(-c2cncc(C(=O)N/N=C/C3CCCCCC3)n2)cc1` [Compound 182, (E)-N′-(cycloheptylmethylene)-6-(4-ethoxyphenyl)pyrazine-2-carbohyrazide], the values for the IC50 in experiment [3] and in experiment [4] were 0.3 µM and above 10 µM, respectively.

With `CC(C)Oc1ccc(-c2cncc(C(=O)N/N=C/C3CCCCCC3)n2)cc1` [Compound 183, (E)-N′-(cycloheptylmethylene)-6-(4-isopropoxyphenyl)pyrazine-2-carbohyazide], the half-inhibitory concentration (IC50) in experiment [3] was found to be 0.231 µM; in experiment [4], 0.256 µM.

Consider `COc1cc(/C=N/NC(=O)c2cncc(-c3ccc(OC)nc3)n2)cc(OC)c1` [Compound 184, (E)-N′-(3,5-dimethoxybenzylidene)-6-(6-methoxypyridin-3-yl)pyrazine-2-carbohydrazide], for which the IC50 in experiment [3] was 0.398 µM; in experiment [4] it was above 10 µM.

Consider `CCOc1ccc(-c2cncc(C(=O)N/N=C/c3cc(OC)cc(OC)c3)n2)c(C(F)(F)F)c1` [Compound 187], for which the IC50 came to 0.496 µM in experiment [3] and 0.219 µM in experiment [4].

On to `CCOc1ccc(-c2cncc(C(=O)N/N=C/c3ccc(C(=O)NS(C)(=O)=O)cc3)n2)cc1` [Compound 188, (E)-4-((2-(6-(4-ethoxyphenyl)pyrazine-2-carbonyl)hydrazinalidene)methyl)-N-(methylsulfonyl)benzamide], for which the IC50 was above 1 µM in experiment [3] and above 10 µM in experiment [4].

For `COc1cc(/C=N/NC(=O)c2cncc(-c3ccc(C(=O)NS(C)(=O)=O)cc3)n2)cc(OC)c1` [Compound 190, (E)-4-(6-(2-(3,5-dimethoxybenzylidene)hydrazine-1-carbonyl)pyrazin-2-yl)-N-(methylsulfonyl)benzamide], the half-inhibitory concentration (IC50) was above 1 µM in experiment [3] and above 10 µM in experiment [4].

On to `CCOc1ccc(-c2cncc(C(=O)N/N=C/c3ccccc3CS(C)(=O)=O)n2)cc1` [Compound 191, (E)-6-(4-ethoxyphenyl)-N′-(2-((methylsulfonyl)methyl)benzylidene)pyrazine-2-carbohydrazide], for which the IC50 in experiment [3] was above 1 µM; in experiment [4], 3.2 µM.

With `CCOc1ccc(-c2cncc(C(=O)N/N=C/c3ccccc3S(C)(=O)=O)n2)cc1` [Compound 192], the 50% inhibitory concentration (IC50) stood at 0.952 µM in experiment [3] and 7.22 µM in experiment [4].

For `CCOc1ccc(-c2cncc(C(=O)N/N=C/c3ccccc3NS(C)(=O)=O)n2)cc1` [Compound 193, (E)-N-(2-((2-(6-(4-ethoxyphenyl)pyrazine-2-carbonyl)hydrazinalidene)methyl)phenyl)methanesulfonamide], the figures for the IC50 in experiment [3] and in experiment [4] were above 1 µM and above 10 µM, respectively.

Consider `CC1=C(/C=N/NC(=O)c2cncc(-c3ccc(OC(C)C)cc3)n2)CCCC1` [Compound 199, (E)-6-(4-isopropoxyphenyl)-N′-((2-methylcyclohept-1-en-1-yl)methylene)pyrazine-2-carbohydrzide], for which the figures for the IC50 in experiment [3] and in experiment [4] were 0.166 µM and 1.74 µM, respectively.

With `COc1ccc(-c2cncc(C(=O)N/N=C/C3=C(C)CCCCC3)n2)cc1` [Compound 200], the values for the concentration for half-maximal inhibition (IC50) in experiment [3] and in experiment [4] were 0.129 µM and 2.65 µM, respectively.

Consider `CC1=C(/C=N/NC(=O)c2cncc(-c3ccc(OC(C)C)cc3)n2)CCCCC1` [Compound 202, (E)-6-(4-isopropoxyphenyl)-N′-((2-methylcyclohept-1-en-1-yl)methylene)pyrazine-2-carbohydrazide], for which the concentration for half-maximal inhibition (IC50) came out at 0.093 µM in experiment [3] and 0.107 µM in experiment [4].

For the compound `CCOc1ccc(-c2nc(C(=O)N/N=C/c3cc(OC)cc(OC)c3)cnc2N)cc1` [Compound 206, (E)-5-amino-N′-(3,5-dimethoxybenzylidene)-6-(4-ethoxyphenyl)pyrazine-2-carbohydrazide], the values for the IC50 in experiment [3] and in experiment [4] were above 1 µM and above 10 µM, respectively.

For the compound `CCOc1ccc(-c2nc(C(=O)N/N=C/c3cc(OC)cc(OC)c3)cnc2Cl)cc1` [Compound 209, (E)-5-chloro-N′-(3,5-dimethoxybenzylidene)-6-(4-ethoxyphenyl)pyrazine-2-carbohydrazide], the IC50 in experiment [3] amounted to 0.189 µM; in experiment [4], 2.47 µM.

As for `CCOc1ccc(-c2nc(C(=O)N/N=C/c3cc(OC)cc(OC)c3)cnc2C(F)(F)F)cc1` [Compound 210, (E)-N′-(3,5-dimethoxybenzylidene)-6-(4-ethoxyphenyl)-5-(trifluoromethyl)pyrazine-2-carbohydrazide], the IC50 in experiment [3] is 0.68 µM; in experiment [4], above 10 µM.

As to `CCOc1ccc(-c2nc(C(=O)N/N=C/c3cc(OC)cc(OC)c3)cnc2OCC)cc1` [Compound 212, (E)-N′-(3,5-dimethoxybenzylidene)-5-ethoxy-6-(4-ethoxyphenyl)pyrazine-2-carbohydrazide], the IC50 in experiment [3] was above 1 µM; in experiment [4] it was above 10 µM.

Regarding `CCOc1cc(C)c(-c2cncc(C(=O)N/N=C/c3cccc(OC)c3)n2)c(C)c1` [Compound 213, (E)-6-(4-ethoxy-2,6-diemthylphenyl)-N′-(3-methoxybenzylidene)pyrazine-2-carbohydrazide], the results for the IC50 in experiment [3] and in experiment [4] were above 1 µM and above 10 µM, respectively.

`CCOc1ccc(-c2cncc(C(=O)N/N=C/c3cc(CCO)cc(OC)c3)n2)cc1` [Compound 214]: the half-inhibitory concentration (IC50) is above 1 µM in experiment [3] and above 10 µM in experiment [4].
